Laboratory results as given in US10590140B2, “Tetrahydropyrimidodiazepine and dihydropyridodiazepine compounds for treating pain and pain related conditions” (ESTEVE PHARMACEUTICALS, S.A., priority 2016, dated 2020).
Where two headings read alike, the source gives them in different places.

What was measured:
[1] = target: human norepinephrine transporter (NET) (Homo sapiens (Human), UniProt P23975); assay: Binding assay to human norepinephrine transporter (NET) ([3H]-Nisoxetin); conditions: Table 2, dual compounds; [3H]-Nisoxetin binding
Procedure: Binding Assay to Human Norepinephrine Transporter (NET).
Human norepinephrine transporter (NET) enriched membranes (5 μg) were incubated with 5 nM of radiolabeled [3H]-Nisoxetin in assay buffer containing 50 mM Tris-HCl, 120 mM NaCl, 5 mM KCl, pH 7.4.
NSB (non specific binding) was measured by adding 1 μM. After 60 min incubation at 4° C., binding reaction was terminated by filtering through Multiscreen GF/C (Millipore) presoaked in 0.5% polyethyleneimine in Vacuum Manifold Station, followed by 3 washes with ice-cold filtration buffer containing 50 mM Tris-HCl, 0.9% NaCl, pH 7.4.
Filter plates were dried at 60° C. for 1 hour and 30 μl of scintillation cocktail were added to each well before radioactivity reading.

[2] = target: human α2δ-1 subunit of Cav2.2 calcium channel (Homo sapiens (Human), UniProt P54289); assay: Binding assay to human α2δ-1 subunit of Cav2.2 calcium channel ([3H]-Gabapentin); conditions: read-out: Ki (nM) α2δ-1
Method in brief: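 Radioactivity on dried GF/C filters quantified by scintillation after filtration and three cold Tris-HCl (pH 7.4) washes. Incubation ran 60 min at 27° C with [3H]-gabapentin; 10 μM pregabalin gave nonspecific binding.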

[3] = Table 2, dual compounds, [3H]-Gabapentin binding
[4] = binding to α2δ-1, [3H]-Gabapentin

Sequence of human norepinephrine transporter (NET) (P23975 whole entry): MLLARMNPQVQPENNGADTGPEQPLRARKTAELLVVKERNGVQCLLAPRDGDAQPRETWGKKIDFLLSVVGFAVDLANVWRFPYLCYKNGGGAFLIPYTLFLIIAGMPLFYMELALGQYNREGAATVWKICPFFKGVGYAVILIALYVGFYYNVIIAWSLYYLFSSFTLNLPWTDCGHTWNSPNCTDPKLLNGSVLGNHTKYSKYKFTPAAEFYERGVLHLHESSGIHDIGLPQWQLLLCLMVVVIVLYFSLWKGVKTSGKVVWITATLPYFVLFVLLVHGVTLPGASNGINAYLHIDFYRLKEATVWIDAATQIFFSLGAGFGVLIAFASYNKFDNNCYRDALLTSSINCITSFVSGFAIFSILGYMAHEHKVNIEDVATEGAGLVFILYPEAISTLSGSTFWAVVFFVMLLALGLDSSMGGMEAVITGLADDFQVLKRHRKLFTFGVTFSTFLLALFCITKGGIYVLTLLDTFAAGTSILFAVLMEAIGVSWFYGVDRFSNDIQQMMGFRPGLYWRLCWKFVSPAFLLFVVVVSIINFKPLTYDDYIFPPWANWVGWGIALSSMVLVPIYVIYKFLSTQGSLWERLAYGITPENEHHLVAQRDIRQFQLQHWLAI
Sequence of human α2δ-1 subunit of Cav2.2 calcium channel (P54289 25-1103): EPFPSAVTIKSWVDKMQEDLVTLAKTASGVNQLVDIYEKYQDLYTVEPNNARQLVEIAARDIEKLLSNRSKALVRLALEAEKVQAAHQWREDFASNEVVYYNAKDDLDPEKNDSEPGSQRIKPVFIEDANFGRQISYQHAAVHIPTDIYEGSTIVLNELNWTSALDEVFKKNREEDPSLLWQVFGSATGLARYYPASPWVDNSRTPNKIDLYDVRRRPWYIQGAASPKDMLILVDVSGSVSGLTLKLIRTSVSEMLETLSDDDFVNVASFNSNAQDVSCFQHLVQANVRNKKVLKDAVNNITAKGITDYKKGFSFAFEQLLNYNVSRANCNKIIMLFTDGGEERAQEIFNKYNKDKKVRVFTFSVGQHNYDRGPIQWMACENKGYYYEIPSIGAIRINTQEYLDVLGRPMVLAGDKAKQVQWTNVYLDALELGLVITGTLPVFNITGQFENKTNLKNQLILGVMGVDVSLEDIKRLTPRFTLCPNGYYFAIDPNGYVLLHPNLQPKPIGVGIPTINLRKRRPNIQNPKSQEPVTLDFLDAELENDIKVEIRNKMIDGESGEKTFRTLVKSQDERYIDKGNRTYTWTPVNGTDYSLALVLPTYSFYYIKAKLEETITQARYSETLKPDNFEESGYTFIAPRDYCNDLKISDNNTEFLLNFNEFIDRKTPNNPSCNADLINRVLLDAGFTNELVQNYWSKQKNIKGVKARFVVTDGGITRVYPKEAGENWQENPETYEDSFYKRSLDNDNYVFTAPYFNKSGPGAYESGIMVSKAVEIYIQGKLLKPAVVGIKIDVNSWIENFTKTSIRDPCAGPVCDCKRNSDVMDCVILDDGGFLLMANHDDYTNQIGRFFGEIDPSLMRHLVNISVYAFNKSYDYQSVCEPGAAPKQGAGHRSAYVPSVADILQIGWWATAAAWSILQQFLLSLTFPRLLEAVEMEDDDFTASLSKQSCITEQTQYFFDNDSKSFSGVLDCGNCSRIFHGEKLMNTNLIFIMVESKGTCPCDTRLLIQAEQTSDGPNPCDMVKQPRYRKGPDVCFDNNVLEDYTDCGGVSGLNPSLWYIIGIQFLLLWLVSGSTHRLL

| Structure (SMILES) | Ki [1] [nM] | Ki [2, 3] [nM] | Ki [2, 4] [nM] |
| --- | --- | --- | --- |
| CNCC[C@@H](OCc1cccc(N2CCN(C)c3nc(N)ncc3C2=O)c1)c1ccccc1 [Example 195, (R)-2-amino-9-methyl-6-(3-((3-(methylamino)-1-phenylpropoxy)methyl)phenyl)-6,7,8,9-tetrahydro-5H-pyrimido[4,5-e][1,4]diazepin-5-one] | 500 to 1000 | 500 to 3000 | 100 to 500 |
| CNCCC(OCc1cccc(N2CCN(C)c3nc(SC)ncc3C2=O)c1)c1cccs1 (stereo not drawn) [Example 208, 9-Methyl-6-(3-((3-(methylamino)-1-(thiophen-2-yl)propoxy)methyl)phenyl)-2-(methylthio)-6,7,8,9-tetrahydro-5H-pyrimido[4,5-e][1,4]diazepin-5-one] | 500 to 1000 | 500 to 3000 | 500 to 3000 |
| CNCC[C@H](OCc1cccc(N2CCN(C)c3nc(SC)ncc3C2=O)c1)c1cccs1 [Example 210, (S)-9-methyl-6-(3-((3-(methylamino)-1-(thiophen-2-yl)propoxy)methyl)phenyl)-2-(methylthio)-6,7,8,9-tetrahydro-5H-pyrimido[4,5-e][1,4]diazepin-5-one] | 100 to 500 | > 3000 | > 3000 |
| CNCC(OCc1cccc(N2CCN(C)c3nc(SC)ncc3C2=O)c1)c1ccccc1 (stereo not drawn) [Example 226, 9-methyl-6-(3-((2-(methylamino)-1-phenylethoxy)methyl)phenyl)-2-(methylthio)-6,7,8,9-tetrahydro-5H-pyrimido[4,5-e][1,4]diazepin-5-one] | 500 to 1000 | > 3000 | > 3000 |
| CCNc1cc2c(cn1)C(=O)N(c1cccc(OC(CCNC)c3ccccc3)c1)CCN2C (stereo not drawn) [Example 198, 8-(ethylamino)-1-methyl-4-(3-(3-(methylamino)-1-phenylpropoxy)phenyl)-1,2,3,4-tetrahydro-5H-pyrido[4,3-e][1,4]diazepin-5-one] | 100 to 500 | 500 to 3000 | 500 to 3000 |
| CCNc1ncc2c(n1)N(C)CCN(c1cccc(COC(CNC)c3ccccc3)c1)C2=O (stereo not drawn) [Example 225, 2-(Ethylamino)-9-methyl-6-(3-((2-(methylamino)-1-phenylethoxy)methyl)phenyl)-6,7,8,9-tetrahydro-5H-pyrimido[4,5-e][1,4]diazepin-5-one] | > 1000 | 500 to 3000 | 500 to 3000 |
| CCNc1ncc2c(n1)N(C)CCN(c1cccc(C(C)(C)CNC)c1)C2=O [Example 173, 2-(ethylamino)-9-methyl-6-(3-(2-methyl-1-(methylamino)propan-2-yl)phenyl)-6,7,8,9-tetrahydro-5H-pyrimido[4,5-e][1,4]diazepin-5-one] | > 1000 | 500 to 3000 | 500 to 3000 |
| CCNc1ncc2c(n1)N(C)CCN(c1cccc(-n3cc(CN(C)CCc4ccccc4)nn3)c1)C2=O [Example 244, 2-(ethylamino)-9-methyl-6-(3-(4-((methyl(phenethyl)amino)methyl)-1H-1,2,3-triazol-1-yl)phenyl)-6,7,8,9-tetrahydro-5H-pyrimido[4,5-e][1,4]diazepin-5-one] | < 100 | 500 to 3000 | 500 to 3000 |
| CCNc1ncc2c(n1)N(C)CCN(c1cccc(OC(CCNC)c3ccccn3)c1)C2=O (stereo not drawn) [Example 193, 2-(ethylamino)-9-methyl-6-(3-(3-(methylamino)-1-(pyridin-2-yl)propoxy)phenyl)-6,7,8,9-tetrahydro-5H-pyrimido[4,5-e][1,4]diazepin-5-one] | > 1000 | 500 to 3000 | 500 to 3000 |
| CNCC[C@@H](OCc1cccc(N2CCN(C)c3nc(OC)ncc3C2=O)c1)c1ccccc1 [Example 204, (R)-2-methoxy-9-methyl-6-(3-((3-(methylamino)-1-phenylpropoxy)methyl)phenyl)-6,7,8,9-tetrahydro-5H-pyrimido[4,5-e][1,4]diazepin-5-one] | 100 to 500 | 500 to 3000 | 500 to 3000 |

More lines, now with the values ahead:

| Ki [1] [nM] | Ki [2, 3] [nM] | Ki [2, 4] [nM] | Structure (SMILES) |
| --- | --- | --- | --- |
| 100 to 500 | > 3000 | > 3000 | CNCC(OCc1ccc(CN2CCN(C)c3nc(SC)ncc3C2=O)cc1)c1ccccc1 (stereo not drawn) [Example 374, 9-methyl-6-(4-((2-(methylamino)-1-phenylethoxy)methyl)benzyl)-2-(methylthio)-6,7,8,9-tetrahydro-5H-pyrimido[4,5-e][1,4]diazepin-5-one] |
| 100 to 500 | > 3000 | > 3000 | CCNc1ncc2c(n1)N(C)CCN(Cc1cccc(COC(CCNC)c3ccccc3)c1)C2=O (stereo not drawn) [Example 406, 2-(ethylamino)-9-methyl-6-(3-((3-(methylamino)-1-phenylpropoxy)methyl)benzyl)-6,7,8,9-tetrahydro-5H-pyrimido[4,5-e][1,4]diazepin-5-one] |
| 100 to 500 | 100 to 500 | 100 to 500 | CNCCC(Oc1cccc(N2CCN(C)c3cc(C)ncc3C2=O)c1)c1cccs1 (stereo not drawn) [Example 307, 1,8-dimethyl-4-(3-(3-(methylamino)-1-(thiophen-2-yl)propoxy)phenyl)-1,2,3,4-tetrahydro-5H-pyrido[4,3-e][1,4]diazepin-5-one] |
| 100 to 500 | > 3000 | > 3000 | CNCC(OCc1cccc(CN2CCN(C)c3nc(SC)ncc3C2=O)c1)c1ccccc1 (stereo not drawn) [Example 372, 9-methyl-6-(3-((2-(methylamino)-1-phenylethoxy)methyl)benzyl)-2-(methylthio)-6,7,8,9-tetrahydro-5H-pyrimido[4,5-e][1,4]diazepin-5-one] |
| 100 to 500 | > 3000 | > 3000 | CNCCC(OCc1cccc(N2CCN(C)c3nc(C(F)(F)F)ncc3C2=O)c1)c1ccccc1 (stereo not drawn) [Example 322, 9-methyl-6-(3-((3-(methylamino)-1-phenylpropoxy)methyl)phenyl)-2-(trifluoromethyl)-6,7,8,9-tetrahydro-5H-pyrimido[4,5-e][1,4]diazepin-5-one] |
| 100 to 500 | 100 to 500 | 100 to 500 | CCNc1ncc2c(n1)N(C)CCN(c1cccc(C3CCN(CCc4ccccc4)CC3)c1)C2=O [Example 261, 2-(ethylamino)-9-methyl-6-(3-(1-phenethylpiperidin-4-yl)phenyl)-6,7,8,9-tetrahydro-5H-pyrimido[4,5-e][1,4]diazepin-5-one] |
| 100 to 500 | 100 to 500 | 100 to 500 | CNCC[C@@H](OCc1cccc(N2CCN(C)c3nc(NCc4ccccn4)ncc3C2=O)c1)c1ccccc1 [Example 343, (R)-9-methyl-6-(3-((3-(methylamino)-1-phenylpropoxy)methyl)phenyl)-2-((pyridin-2-ylmethyl)amino)-6,7,8,9-tetrahydro-5H-pyrimido[4,5-e][1,4]diazepin-5-one] |
| < 100 | 500 to 3000 | 500 to 3000 | CNCC[C@H](Oc1ccc(CN2CCN(C)c3ncncc3C2=O)cc1)c1ccccc1 [Example 433, (S)-9-methyl-6-(4-(3-(methylamino)-1-phenylpropoxy)benzyl)-6,7,8,9-tetrahydro-5H-pyrimido[4,5-e][1,4]diazepin-5-one] |
| < 100 | 500 to 3000 | 500 to 3000 | CCNc1ncc2c(n1)N(C)CCN(Cc1ccc(O[C@@H](CCNC)c3ccccc3)cc1)C2=O [Example 414, (S)-2-(ethylamino)-9-methyl-6-(4-(3-(methylamino)-1-phenylpropoxy)benzyl)-6,7,8,9-tetrahydro-5H-pyrimido[4,5-e][1,4]diazepin-5-one] |
| < 100 | 500 to 3000 | 500 to 3000 | CNCCC(Oc1ccc(CN2CCN(C)c3nc(SC)ncc3C2=O)cc1)c1ccccc1 (stereo not drawn) [Example 369, 9-methyl-6-(4-(3-(methylamino)-1-phenylpropoxy)benzyl)-2-(methylthio)-6,7,8,9-tetrahydro-5H-pyrimido[4,5-e][1,4]diazepin-5-one] |
| 100 to 500 | 100 to 500 | 100 to 500 | CCNc1ncc2c(n1)N(C)CCN(c1cccc(-n3cc(CN4CCCCC4)nn3)c1)C2=O [Example 281, 2-(ethylamino)-9-methyl-6-(3-(4-(piperidin-1-ylmethyl)-1H-1,2,3-triazol-1-yl)phenyl)-6,7,8,9-tetrahydro-5H-pyrimido[4,5-e][1,4]diazepin-5-one] |
| 100 to 500 | 100 to 500 | 100 to 500 | CNCC[C@H](Oc1ccc(CN2CCN(C)c3cc(OC)ncc3C2=O)cc1)c1cccs1 [Example 385, (S)-8-methoxy-1-methyl-4-(4-(3-(methylamino)-1-(thiophen-2-yl)propoxy)benzyl)-1,2,3,4-tetrahydro-5H-pyrido[4,3-e][1,4]diazepin-5-one] |
| 500 to 1000 | > 3000 | > 3000 | CNCCC(Oc1ccc(N2CCN(C)c3nc(SC)ncc3C2=O)cc1)c1ccccc1 (stereo not drawn) [Example 316, 9-methyl-6-(4-(3-(methylamino)-1-phenylpropoxy)phenyl)-2-(methylthio)-6,7,8,9-tetrahydro-5H-pyrimido[4,5-e][1,4]diazepin-5-one] |
| < 100 | 500 to 3000 | 500 to 3000 | CCNc1ncc2c(n1)N(C)CCN(Cc1ccc(OC(CCNC)c3ccccc3)cc1)C2=O (stereo not drawn) [Example 408, 2-(ethylamino)-9-methyl-6-(4-(3-(methylamino)-1-phenylpropoxy)benzyl)-6,7,8,9-tetrahydro-5H-pyrimido[4,5-e][1,4]diazepin-5-one] |
